Measurements from US4568693A, “N-Naphthoylglycine derivatives” (Ayerst, McKenna & Harrison, Inc., priority 1981, dated 1986).

Legend:
[1] = test system: accumulation of dulcitol in the lenses; test: galactosemic rats, dulcitol accumulation in the lens; type: in vivo, rat (Sprague-Dawley); details: 4 days, vs untreated galactosemic rats
Excerpt: The aldose reductase inhibiting property of the compounds of this invention and the utilization of the compounds in preventing, diminishing and alleviating diabetic complications are demonstrable in experiments using galactosemic rats, see Dvornik et al., cited above. Such experiments are exemplified hereinbelow after the listing of the following general comments pertaining to these experiments:
(a) Four or more groups of six male rats, 50-70 g, Sprague-Dawley strain, were used. The first group, the control group, was fed a mixture of laboratory chow (rodent laboratory chow, Purina) and glucose at 20% (w/w %) concentration. The untreated galactosemic group was fed a similar diet in which galactose is substituted for glucose. The third group was fed a diet prepared by mixing a given amount of the test compound with the galactose containing diet. The concentration of galactose in the diet of the treated groups was the same as that for the untreated galactosemic group.
(b) After four days, the animals were killed by decapitation. The eyeballs were removed and punctured with a razor blade; the freed lenses were rolled gently on filter paper and weighed. The sciatic nerves were dissected as completely as possible and weighed. Both tissues were frozen and can be kept up to two weeks before being analyzed for dulcitol.
(c) The polyol determination was performed by a modification of the procedure of M. Kraml and L. Cosyns, Clin. Biochem., 2, 373 (1969). Only two minor reagent changes were made: (a) The rinsing mixture was an aqueous 5% (w/v) trichloroacetic acid solution and (b) the stock solution was prepared by dissolving 25 mg of dulcitol in 100 ml of an aqueous trichloroacetic acid solution. [N.B.: For each experiment the average value found in the tissue from rats fed the glucose diet was subtracted from the individual values found in the corresponding rat tissue to obtain the amount of polyol accumulated].
The figures under L and N represent the percentage decrease of dulcitol accumulation in the tissues of the lens and sciatic nerve, respectively, for treated rats as compared to untreated rats.

aldose reductase [2] = target: T1, aldose reductase (Bos taurus, UniProt P16116); test: in vitro aldose reductase inhibition (modified Hayman and Kinoshita procedure); type: biochemical, bovine; details: for inhibition at 10 µM: 10^-5 molar, read-out: % Inhibition at Different Molar Concentration (in vitro), 10^-5; for inhibition at 1 µM: 10^-6 molar, read-out: % Inhibition at Different Molar Concentration (in vitro), 10^-6; for inhibition at 0.1 µM: 10^-7 molar, read-out: % Inhibition at Different Molar Concentration (in vitro), 10^-7
T1 construct: the preparation of the enzyme from bovine lens; from tissue; host or cells: bovine lens
Excerpt: In the present case the procedure of Hayman and Kinoshita is modified in that the final chromatography step is omitted in the preparation of the enzyme from bovine lens.

aldose reductase [3] = details: literature; cited from earlier work

Compound | inhibition at 10 µM (aldose reductase [2]) [%] | inhibition at 1 µM (aldose reductase [2]) [%] | inhibition at 0.1 µM (aldose reductase [2]) [%] | further results
CN(CC(=O)O)C(=S)c1cccc2c(Br)cccc12 [Example 32, N-[(5-Bromo-1-naphthalenyl)thioxomethyl]-N-methylglycine] | 93 | 87 | 47 | percentage decrease of dulcitol accumulation, lens (L) ([1]; 62 mg/kg/day in diet): 14%; percentage decrease of dulcitol accumulation, lens (L) ([1]; 121 mg/kg/day in diet): 20%; percentage decrease of dulcitol accumulation, lens (L) ([1]; 189 mg/kg/day in diet): 24%
COc1ccc2c(C(=S)N(C)CC(=O)O)cccc2c1C(F)(F)F [Example 52, N-[[5-(trifluoromethyl)-6-methoxy-1-naphthalenyl]thioxomethyl]-N-methylglycine] |  |  |  | percentage decrease of dulcitol accumulation, lens (L) ([1]; 26 mg/kg/day in diet): 15%
CN(CC(=O)O)C(=S)c1cccc2c([N+](=O)[O-])cccc12 [Example 39, N-[(5-nitro-1-naphthalenyl)thioxomethyl]-N-methylglycine] | 91 | 83 | 43 | 
COC(=O)CN(C)C(=S)c1cccc2c(C(F)(F)F)c(OC)ccc12 [Example 23, N-[[5-(trifluoromethyl)-6-methoxy-1-naphthalenyl]thioxomethyl]-N-methylglycine methyl ester] | 9 |  |  | percentage decrease of dulcitol accumulation, lens (L) ([1]; 11 mg/kg/day in diet): 10%
O=C(O)CN1C(=O)c2cccc3cccc(c23)C1=O [1,3-Dioxo-1H-benz[de]isoquinoline-2(3H)-acetic acid] |  |  |  | inhibition of aldose reductase (result in words) (aldose reductase [3]): effective inhibitor of aldose reductase
CN(CC(=O)O)C(=S)c1cccc2cccc(Br)c12 [Example 34, N-[(8-bromo-1-naphthalenyl)thioxomethyl]-N-methylglycine] | 88 | 75 | 24 | 
COc1cccc2c(C(=S)N(C)CC(=O)O)cccc12 [Example 35, N-[(5-methoxy-1-naphthalenyl)thioxomethyl]-N-methylglycine] | 83 | 64 | 17 | 
O=C1NC(=O)[C@@]2(CCOc3ccc(F)cc32)N1 [sorbinil, (S)-6-Fluoro-2,3-dihydrospiro(4H-1-benzopyran-4,4'-imidazolidine)-2',5'-dione] |  |  |  | inhibition of aldose reductase (result in words) (aldose reductase [3]): aldose reductase inhibiting properties
COC(=O)CN(C)C(=S)c1cccc2c(Br)cccc12 [Example 3, N-[(5-Bromo-1-naphthalenyl)thioxomethyl]-N-methylglycine Methyl Ester] | 8 |  |  | 
CN(CC(=O)O)C(=S)c1ccc(Br)c2ccccc12 [Example 33, N-[(4-bromo-1-naphthalenyl)thioxomethyl]-N-methylglycine] | 91 | 77 | 32 | 
COc1ccc2c(C(=S)N(C)CC(=O)O)ccc(OC)c2c1C(F)(F)F [CH3, H, 4-CH3 O, 5-CF3,6-CH3 O, N-[[4,6-dimethoxy-5-(trifluoromethyl)-1-naphthalenyl]thioxomethyl]-N-methylglycine] |  |  |  | percentage decrease of dulcitol accumulation, lens (L) ([1]; 144 mg/kg/day in diet): 33%

Now from value to compound, other results behind:

inhibition at 10 µM (aldose reductase [2]) [%] | inhibition at 1 µM (aldose reductase [2]) [%] | inhibition at 0.1 µM (aldose reductase [2]) [%] | Compound | further results
93 | 84 | 33 | CN(CC(=O)O)C(=S)c1cccc2c(C(F)(F)F)cccc12 [Example 53b, N-[[(5-trifluoromethyl)-1-naphthalenyl]thioxomethyl]-N-methylglycine] | percentage decrease of dulcitol accumulation, lens (L) ([1]; 11 mg/kg/day in diet): 2%
88 | 75 | 29 | CN(CC(=O)O)C(=S)c1cccc2c(Cl)cc(Cl)cc12 [Example 46, N-[(5,7-dichloro-1-naphthalenyl)thioxomethyl]-N-methylglycine] | percentage decrease of dulcitol accumulation, lens (L) ([1]; 52 mg/kg/day in diet): 29%
98 | 95 | 72 | COc1ccc2c(C(=S)N(C)CC(=O)O)cccc2c1I [Example 47, N-[(5-iodo-6-methoxy-1-naphthalenyl)thioxomethyl]-N-methylglycine] | 
88 | 73 | 25 | CN(CC(=O)O)C(=S)c1ccc(Cl)c2ccccc12 [Example 44, N-[(4-chloro-1-naphthalenyl)thioxomethyl]-N-methylglycine] | 
85 | 72 | 24 | CCN(CC(=O)O)C(=S)c1cccc2c(Br)cccc12 [Example 57, N-[(5-bromo-1-naphthalenyl)thioxomethyl]-N-ethylglycine] | 
86 | 65 | 19 | CCCCN(CC(=O)O)C(=S)c1cccc2c(Br)cccc12 [Example 58, N-[(5-bromo-1-naphthalenyl)thioxomethyl]-N-butylglycine] | 
85 | 78 | 33 | COc1c(Cl)cc(C(=S)N(C)CC(=O)O)c2ccccc12 [Example 45, N-[(3-chloro-4-methoxy-1-naphthalenyl)thioxomethyl]-N-methylglycine] | percentage decrease of dulcitol accumulation, lens (L) ([1]; 163 mg/kg/day in diet): 15%
99 | 91 | 72 | COc1ccc2c(C(=S)N(C)CC(=O)O)cccc2c1Br [Example 41, N-[(5-bromo-6-methoxy-1-naphthalenyl)thioxomethyl]-N-methylglycine] | percentage decrease of dulcitol accumulation, lens (L) ([1]; 162 mg/kg/day in diet): 34%
91 | 70 | 19 | CCCN(CC(=O)O)C(=S)c1cccc2c(Br)cccc12 [Example 55, N-[(5-bromo-1-naphthalenyl)thioxomethyl]-N-propylglycine] | 
86 | 37 | 11 | CN(CC(=O)O)C(=S)c1cccc2c(Br)c(OCc3cccc(C(F)(F)F)c3)ccc12 [Example 53, N-[[5-bromo-6-[3-(trifluoromethyl)phenylmethoxy]-1-naphthalenyl]thioxomethyl]-N-methylglycine] | 
91 | 83 | 40 | CN(CC(=O)O)C(=S)c1cccc2c(Cl)cccc12 [Example 40, N-[(5-chloro-1-naphthalenyl)thioxomethyl]-N-methylglycine] | percentage decrease of dulcitol accumulation, lens (L) ([1]; 156 mg/kg/day in diet): 34%
92 | 88 | 55 | Cc1ccc2c(C(=S)N(C)CC(=O)O)cccc2c1Br [Example 42, N-[(5-bromo-6-methyl-1-naphthalenyl)thioxomethyl]-N-methylglycine] | 
